Laboratory results taken from PubChem BioAssay AID179 (DTP/NCI, 2004).
“And” between values parts separate entries of the source, which are not always exact repeats. Identical values can stand only once. The source made the active and inactive calls.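 The calls were made as follows: active = compounds giving half or more protection of infected cells from virus-caused growth loss, again on retest; inactive = the rest.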

System: CEM cells HIV-1 protection, formazan growth assay
Experiment: NCI AIDS Antiviral Assay
Conditions: for IC50: measured here: growth of uninfected CEM cells
Outline: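 Steps: treat uninfected and HIV-1-infected human CEM cells at five drug levels; quantify growth by soluble formazan; retest any compound reaching 50% protection; classify actives from the retest.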

Compound | EC50 [µM] | IC50 | outcome
O=C(Cc1ccccc1)NN1C(=O)C(Cl)C1c1ccc(Cl)cc1 (stereo unspecified) | > 102 | > 102 µM | 
CC1=Nc2nc3ccccc3n2C(C)(C)C1 | > 174 | 112 µM | 
NC(=S)N/N=C1\c2ccccc2CCC1CCC1(O)CCc2ccccc2C1=O (stereo unspecified) | > 200 | 31.6 µM | 
CC(C)(C)c1cc(C(=O)/C=C/c2ccc(C(=O)O)cc2)cc(C(C)(C)C)c1 | > 15.1 | 8.32 µM | 
N#CC(C(=O)CCC(=O)Nc1cccc(Cl)c1)c1ccccc1 (stereo unspecified) | > 759 | > 759 µM | 
COC1=C(N)C(=O)c2nc(-c3nc(C(=O)O)c(C)c(-c4ccc(OC)c(OC)c4O)c3N)ccc2C1=O | > 4.9 | 0.00302 µM and 0.00191 µM | 
CC1CCC(C(C)C)C(O[C@@H]2OC(=O)C[C@@H]2Sc2ccccc2)C1 (stereo partly specified) |  |  | inactive
Cc1ccc(S(=O)(=O)ON2C(=O)c3c(N)c(C#N)c(-c4ccccc4)c(-c4ccccc4)c3C2=O)cc1 | > 200 | 3.8 µM | 
COc1cc(C)c(C(=O)Oc2cc(C)c(C(=O)O)c(O)c2C)c(OC)c1C | > 200 | 70.8 µM | 
O=C1CSC(=O)N1c1ccccc1 | > 186 | > 186 µM | 
COC(=O)C(C)(Cc1ccc2c(c1)nnn2C(C)=O)NC(C)=O (stereo unspecified) | > 200 | > 200 µM | 
O=C1OC(c2ccc3c(c2)OCO3)Sc2ccccc21 (stereo unspecified) | > 18.2 | > 18.2 µM | 
O=C(O)c1ccccc1/C=C1\Cc2ccc3c(c2C1=O)CCCC3 | > 200 | 41.7 µM | 
Cc1cc(C)c(C(=O)OC(c2ccccc2)C(c2ccccc2)N2CCOCC2)c(C)c1 (stereo unspecified) |  |  | inactive
CCCN(CCC)C(=O)c1nc(N)nc(-c2ccc(OC)cc2)c1-c1ccc(OC)cc1 | > 16.6 | > 16.6 µM | 
O=C1c2ccccc2S(=O)(=O)N1Sc1ccccc1[N+](=O)[O-] | > 200 | 17 µM | 
C[C@@H]1CC(O)C2(O)C13CC(OC(=O)[C@@H]3O)C1(O)C(=O)OCC12C (stereo partly specified) | > 759 | > 759 µM | 
CCOC(=O)/C(=C\c1ccc(Br)cc1)[Se]c1ccccc1 | > 63.1 | > 63.1 µM | 
CCCC(=O)Nc1cc([N+](=O)[O-])c([N+](=O)[O-])cc1OC | > 200 | 10.7 µM | 
CC(=O)C(=[N+]=[N-])C(=O)OCCOC(=O)C(=[N+]=[N-])C(C)=O | > 200 | > 200 µM | 
Cc1c(C(=O)CC(=O)C(=O)Nc2ccc(Cl)c(Cl)c2)[n+](=O)c2ccccc2n1[O-] | > 6.31 | > 6.31 µM | 
CNc1nc2c(C)ccc3[nH]c(N(C)C)nc3c-2n1 | > 759 | 50.1 µM | 

Compound | EC50 [µM] | IC50 | outcome
Cc1ccc(S(=O)(=O)Nc2nnc(S(N)(=O)=O)s2)cc1 | > 200 | > 200 µM | 
O=C1CC2OCC=C3CN4CCC5(C(=O)O)C(N1)C2C3CC45 (stereo unspecified) | > 813 | > 813 µM | 
CC1(C)CCCCC1/C=C/C(CC(O)(C(F)(F)F)C(F)(F)F)=N\Nc1ccc([N+](=O)[O-])cc1[N+](=O)[O-] (stereo unspecified) | > 2 | 0.468 µM | 
CN1CCCC(C#N)(c2ccccc2)CC1 (stereo unspecified) |  |  | inactive
CC(C)COC(=O)NC1C(=O)N2C1SC(C)(C)C2C(=O)O (stereo unspecified) (tested in a mixture with another compound) | 87.1 | > 200 µM | 
COc1cc(NC=O)c2c(c1)SC(C)C(=O)N2 (stereo unspecified) | 141 | > 200 µM | 
COc1ccc(C(=O)/C(=N/Nc2ccccc2)c2ccc(OC)cc2)cc1 |  |  | inactive
CCSc1cc(C(=O)OC)c2n(c1=O)CCCC2 | > 200 | > 200 µM | 
CC(=O)NC1=NC(=O)/C(=C/c2ccc(/C=C3/C(=O)N=C(NC(C)=O)N3C)cc2)N1C | > 200 | 151 µM | 
CO/N=C1\CC(NC(=O)CNC(=O)OC(C)(C)C)c2ccsc21 (stereo unspecified) | > 200 | > 200 µM | 
COC(=O)C1=C(CS(=O)c2ccccc2[N+](=O)[O-])ON(C)C1c1ccccc1 (stereo unspecified) |  |  | inactive
O=S(=O)(c1ccccc1)C(CN1CCCCC1)S(=O)(=O)c1ccccc1 |  |  | inactive
c1ccc(N=C2c3ccsc3C(=Nc3ccccc3)c3ccsc32)cc1 | > 200 | 2.51 µM | 
N=C(N)c1ccc2oc3ccc(C(=N)N)cc3c(=O)c2c1 |  |  | inactive
CCC(c1ccc(OC(C)=O)c(CC(Br)CBr)c1)C(CC)c1ccc(OC(C)=O)c(CC(Br)CBr)c1 (stereo unspecified) | > 100 | 16.2 µM | 
O=C(O)Cn1c(=O)ccc2ccccc21 | > 200 | > 200 µM | 
CC(C)C(NCc1c2ccccc2[n+](C)c2ccccc12)C(=O)O (stereo unspecified) |  |  | inactive
NCC(O)c1cc(I)c(Oc2ccc(O)cc2)c(I)c1 (stereo unspecified) | > 200 | 15.5 µM | 
CC1C/C(=C\c2ccc(O)c(O)c2)C(=O)/C(=C/c2ccc(O)c(O)c2)C1 (stereo unspecified) | > 200 | 10 µM | 
O=c1c(SSc2coc3cc(F)ccc3c2=O)coc2cc(F)ccc12 | > 200 | 2.75 µM | 
C(=C/c1ccnc2ccccc12)/c1cccs1 | 0.0631 | 47.9 µM | 
Cc1ccc(C(=O)/C=C/c2ccccc2Cl)cc1 | > 5.62 | > 5.62 µM | 

Compound | EC50 [µM] | IC50 | outcome
CC(C)=CC1CCc2ccccc2N1S(=O)(=O)c1ccc(C)cc1 (stereo unspecified) | > 25.1 | 1.32 µM | 
COc1ccnc(C(=O)N2CCCC2C(=O)O)c1 (stereo unspecified) | > 200 | > 200 µM | 
CCOC(=O)NC1C2CC(=O)OC(O2)C1OC(C)=O (stereo unspecified) | > 912 | 39.8 µM | 
CCOC(=O)C(/C=N\C(=S)Nc1ccc(Cl)c(Cl)c1)=C(/O)c1ccccc1 | > 200 | 24 µM | 
CS(=O)(=O)c1ccc(NNc2cc(=O)[nH]c(=O)[nH]2)cc1 | > 200 | 70.8 µM | 
CC1C2Cc3ccc(O)cc3C1(C)CCN2CCC(=O)c1ccccc1 (stereo unspecified) | > 200 | 27.5 µM | 
Cn1cnc([N+](=O)[O-])c1Sc1nnc(-c2ccc(Cl)cc2)n1C | > 372 | 3.02 µM | 
O=C(OC1CCCCC1)c1cc(NC(=S)c2ccsc2)ccc1Cl | 0.141 | 11.2 µM | 
Cc1cc2n(C)cc(-c3ccnn3C)c(=O)n2n1 | > 151 | > 151 µM | 
N#CCCN(c1ccc(/C=C2\N=C(c3ccc(Cl)cc3)OC2=O)cc1)S(=O)(=O)c1ccccc1 | > 72.4 | > 72.4 µM | 
O=C(CCCN1CCC(C(O)c2ccc(F)cc2)CC1)c1ccc(F)cc1 (stereo unspecified) | > 95.5 | 79.4 µM | 
NS(=O)(=O)C1CCCCC1C(=O)NNC(=O)C(=O)Nc1nc(=S)[nH][nH]1 (stereo unspecified) | > 646 | > 646 µM | 
CCNc1cc2oc(=O)cc(C(F)(F)F)c2cc1C | > 13.8 | > 13.8 µM | 
CC(C)(C)NC(=O)CCC(=O)O | > 200 | 110 µM | 
N=C1N=C(N)c2cc3c(cc21)SCCSCCCSCCS3 | > 50.1 | 8.51 µM | 
NNC(=O)CC(=O)N(C(=O)c1ccccc1)c1ccc(Cl)cc1 | > 200 | > 200 µM | 
CC(=O)N1CC2Nc3ccccc3C2CC1CO (stereo unspecified) |  |  | inactive
Cc1cc(C)c2c(c1)CC1(Cc3ccc(C)c(C)c3C1=O)C2=O (stereo unspecified) | > 100 | > 100 µM | 
CC(=O)OCC1OC(n2c3c(cc(C#N)c2=S)CCCCC3)C(OC(C)=O)C(OC(C)=O)C1OC(C)=O (stereo unspecified) | > 200 | > 200 µM | 
O=C1CC2C(C1Nc1ccccc1)C1C(=Nc3ccccc3)C(Nc3ccccc3)=CC1N2c1ccccc1 (stereo unspecified) | > 10.2 | > 10.2 µM | 
Cc1nc2c(=O)n(C)c(=O)n(C)c2o1 | > 200 | > 200 µM | 
